Test results taken from ChEMBL document CHEMBL3045190, “Atomic and molecular parameters-based comparative QSAR study on tetrahydroimidazodiazepinone derivatives” (Med Chem Res, 2012).

target: Human immunodeficiency virus type 1 reverse transcriptase (Human immunodeficiency virus 1, UniProt Q72547); test: Binding affinity to Human immunodeficiency virus 1 reverse transcriptase

Compound	pEC50
CC(C)=CCN1Cc2cc(Cl)cc3nc(S)n(c23)CC1C (centres undefined) [TIBO]	7.04
CC1Cn2c(S)nc3cc(Cl)cc(c32)CN1CC1CCC1 (centres undefined)	7.37
CC(C)=CCN1Cc2c(C)ccc3nc(S)n(c23)C[C@@H]1C	7.85
CC1Cn2c(S)nc3cc(Cl)cc(c32)CN1CCC1CC1 (centres undefined)	5.66
CC(C)=CCN1Cc2cc(Cl)c(Cl)c3nc(S)n(c23)C[C@@H]1C	7.6
CC(C)=CCN1Cc2cc(Cl)cc3nc(O)n(c23)CC1C (centres undefined)	7.6
CCC(=CCN1Cc2cc(C)cc3nc(O)n(c23)C[C@@H]1C)CC	6.51
CC(C)=CCN1Cc2c(Cl)ccc3[nH]c(=S)n(c23)C[C@@H]1C [TIVIRAPINE]	8.34
CCC(=CCN1Cc2cc(Cl)cc3nc(S)n(c23)CC1C)CC (centres undefined)	7.82

Further lines, results first:

pEC50	Compound
6.35	C=C(C)CN1Cc2cc(Cl)cc3[nH]c(=S)n(c23)CC1C (centres undefined)
7.36	CC(C)=CCN1Cc2cccc3[nH]c(=S)n(c23)CC1C (centres undefined)
6.62	CCCN1Cc2cccc3[nH]c(=S)n(c23)CC1C (centres undefined)
6.1	CC(C)=CCN1Cc2cc(C)cc3[nH]c(=S)n(c23)CC1C (centres undefined)
4.85	C=C(C)CN1Cc2cccc3[nH]c(=O)n(c23)CC1C (centres undefined)
8.52	CC(C)=CCN1Cc2c(Br)ccc3nc(S)n(c23)C[C@@H]1C
8.29	CCC(=CCN1Cc2c(Cl)ccc3[nH]c(=S)n(c23)CC1C)CC (centres undefined)
4.23	C=CCN1Cc2cccc3[nH]c(=O)n(c23)CC1C (centres undefined)
5.33	C=C(C)CN1Cc2cc(Cl)cc3[nH]c(=O)n(c23)CC1C (centres undefined)
5.38	CC(C)=CCN1Cc2cccc3nc(O)n(c23)CC1C (centres undefined)
